Laboratory results as given in patent US20120015063A1, “COMPOSITION FOR TREATMENT AND/OR PREVENTION OF SKIN DISORDER” (priority 2009, published 2012).

What was measured:
[1] = test system: hyaluronic acid (HA); assay: Identification of GAG in skin extract by cellulose acetate membrane electrophoresis (Example 2); type: in vivo, Hos: HR-1 hairless mice; settings: 0.24% glucosamine-mixed diet, UV-irradiated
Protocol: After the grouping, UV-irradiated groups were irradiated with UV light three times a week. Specifically, for the first week, 1 minute of UV irradiation was carried out. For the second week, 2 minutes of UV irradiation, and for the third and fourth week, 3 minutes of UV irradiation were conducted. From the fourth week to the time of dissection completed, 4 minutes of UV irradiation were carried out. The total irradiation amount was 1.35 J. In addition, moisture content and an amount of food ingested were measured twice a week, and body weight was measured once a week.
A UVB lump GL20SE (SANKYO DENKI) was used to carry out UV irradiation having irradiation intensity of 0.3 mW/cm^2. […] Irradiation intensity was adjusted by using a digital ultraviolet light intensity meter, UV-340 (AS ONE Corporation). During irradiation, mice were left for one and a half hour in an individualized cage having a size of 9 cm×5 cm×4 cm. […]

[2] = test system: carbonyl proteins; assay: Quantification of carbonyl proteins in skin tissue by Oxyblot Western blotting (Example 2); type: in vivo, Hos: HR-1 hairless mice; settings: 0.24% glucosamine-mixed diet, UV-irradiated
Protocol: After one week of acclimatization, 54 six-week-old male Hos: HR-1 hairless mice were used in experiments. The below-described diet was used, and the mice were reared under conditions at 25° C. while keeping a free access to food and water. In addition, during measurements of the skin moisture content, a humidity meter was used to determine humidity in an animal room. All experiments were conducted under approval (No. 19-76) of Animal Care and Use Committee of Tokyo University of Agriculture and Technology.
Preparation of an administration diet was ordered to Oriental Yeast Co., Ltd. First, 0.072% mangosteen pericarp extract-mixed diet and 0.15% mangosteen pericarp extract-mixed diet were used. In addition, 0.24% glucosamine-mixed diet was used as a positive control, and CRF-1 diet was used as a negative control. A daily amount of mangosteen pericarp extract ingested was set to 120 mg/kg body weight for the 0.072% group, and set to 250 mg/kg body weight for the 0.15% group as a rough guideline.
A study schedule is illustrated in FIG. 1. A study period was set to 8 weeks, and the study was carried out from October to December in 2007. […] The total irradiation amount was 1.35 J. In addition, moisture content and an amount of food ingested were measured twice a week, and body weight was measured once a week. […]

[3] = test system: hairless mice of a photoaging model; assay: Histological analysis of HE-stained dorsal skin (epidermis thickness, edema), mixed-diet administration (Example 2); type: in vivo, Hos: HR-1 hairless mice; settings: 0.24% glucosamine-mixed diet
[4] = test system: type I collagen; assay: Quantification of type I collagen in skin extract by SDS-PAGE and Western blotting (Example 2); type: in vivo, Hos: HR-1 hairless mice; settings: 0.24% glucosamine-mixed diet, UV-irradiated
Protocol: After the grouping, UV-irradiated groups were irradiated with UV light three times a week. Specifically, for the first week, 1 minute of UV irradiation was carried out. For the second week, 2 minutes of UV irradiation, and for the third and fourth week, 3 minutes of UV irradiation were conducted. From the fourth week to the time of dissection completed, 4 minutes of UV irradiation were carried out.
A UVB lump GL20SE (SANKYO DENKI) was used to carry out UV irradiation having irradiation intensity of 0.3 mW/cm^2. […] Irradiation intensity was adjusted by using a digital ultraviolet light intensity meter, UV-340 (AS ONE Corporation). During irradiation, mice were left for one and a half hour in an individualized cage having a size of 9 cm×5 cm×4 cm. In order to decrease a difference in irradiation intensity for respective cages, the mice were irradiated while subjected to a rotation in every occasion.
A frozen and crushed skin was degreased using methanol for 24 hours. Then, an appropriate amount of PBS (−) containing protease inhibitors was added, and the sample was stirred with a rotator and washed twice to remove serum components, etc. […]

[5] = test system: hairless mice of a photoaging model; assay: Skin moisture content by CORNEOMETER CM825, mixed-diet administration (Example 2); type: in vivo, Hos: HR-1 hairless mice; settings: 0.24% glucosamine-mixed diet
[6] = test system: hairless mice, UVB irradiation; assay: Skin moisture content by CORNEOMETER CM 825, oral forced administration (Example 3); type: in vivo; settings: 20 mg/ml collagen solution, 0.1 ml/10 g body weight orally daily, UV-irradiated (collagen (+) group)
Protocol: Skin moisture content was measured using CORNEOMETER® CM825 (manufactured by COURAGE+KHAZAKA electronic GMBH) twice a week, the measurement being carried out by contacting a probe onto a lumbar region of a mouse prior to UVB irradiation. The measurements were conducted five times, and the average of them was designated as a measured value.
An administration sample employed a mangosteen pericarp formulation. Specifically, a formulation having a ratio of a mangosteen pericarp extract:gum arabic=1:1 was used. One having only gum arabic was used as a control, and collagen was used as a positive control. Solutions having respective concentrations were prepared. A solution having a concentration of 0.1 ml/10 g body weight was orally administered every day during the rearing period by using a stomach tube. Two kinds (a high concentration (24 mg/ml) and a low concentration (12 mg/ml)) of a solution containing a mangosteen pericarp extract were prepared. Then, 24 mg/ml of a gum arabic solution and 20 mg/ml of a collagen solution were prepared.
After 1 week of acclimatization, grouping was conducted based on skin moisture content and viscoelasticity. […]

Molecule	band intensity of HA (control (−) set to 1) [1]	carbonyl protein band intensity (control (−) set to 1) [2]	thickness of the epidermis compared to control (−) ([3]; UV-irradiated)	thickness of the epidermis ([3]; UV-irradiated (GlcN (+) group))	type I collagen band intensity (control (−) set to 1; average of α-chain and β-chain) [4]	skin moisture content at week 8 ([5]; UV-irradiated (GlcN (+) group))	skin moisture content compared to control (+) ([5]; UV-irradiated, weeks 7 and 8)	skin moisture content at week 7 [6]
N[C@H]1C(O)O[C@H](CO)[C@@H](O)[C@@H]1O (some centres unmarked) [GlcN, glucosamine]	0.58	1.63	significant increase in the thickness of the epidermis	39.46±9.56 μm	1.25	62.96±2.78	significant increase	
collagen								68.54±2.91
